The subject of data set [1] is Mus musculus. The data set is described as follows: Immunostimulatory activity in ICR mouse assessed as induction of MIP-1beta release at 100 uM, iv after 2 hrs by ELISA. Format: functional, organism-based.
Data set [2] concerns Mus musculus. The data set is described as follows: Immunostimulatory activity in ICR mouse assessed as induction of IL-6 release at 100 uM, iv after 2 hrs by ELISA. Format: functional, organism-based. A general note: ELISA stands for enzyme-linked immunosorbent assay.
The subject of data set [3] is Macrophage. The data set is described as follows: Immunostimulatory activity in ICR mouse macrophage assessed as induction of phagocytic activity at 50 uM after 2 hrs by fluorescent microsphere assay. The class given is functional, cell-based.
The subject of data set [4] is Mus musculus. The data set is described as follows: Antitumor activity against mouse B16F0 cells allografted in C57BL/6 mouse assessed as inhibition of lung metastasis at 500 ug, iv administered at 7-day interval over 14 days prior to tumor implantation measured on day 28 relative to control. The class given is functional.
For data set [5], the system named is THP-1. Kind of data set: Immunostimulatory activity in human THP1 cells assessed as induction of MIP-1beta release at 100 uM after 3 hrs by ELISA. Format: functional, cell-based.
For a further data set, the system named is Salmonella typhimurium. Kind of data set: Genotoxicity in Salmonella typhimurium TA98 after 30 mins by Ames test. The class given is toxicity, organism-based. The following applies: salmonella enterica subsp. enterica serovar typhimurium, 0.5 h. (The Ames test uses bacterial strains that need an amino acid and regain growth without it when mutated back.)

Data set [6] is described as follows: Antitumor activity against mouse B16F0 cells allografted in C57BL/6 mouse assessed as inhibition of lung metastasis at 100 ug, iv administered at 7-day interval over 14 days prior to tumor implantation measured on day 28 relative to control. The class given is functional.
The subject of data set [7] is Mus musculus. Kind of data set: Toxicity in mouse assessed as mortality at 50 mg, ip administered at 7-day interval. Format: organism-based. The following applies: in vivo.
In data set [8] the test system is Mus musculus. Kind of data set: Antitumor activity against mouse B16F0 cells allografted in C57BL/6 mouse assessed as inhibition of lung metastasis at 1000 ug, iv administered at 7-day interval over 14 days prior to tumor implantation measured on day 28 relative to control. The class given is functional.
Data set [9] concerns THP-1. The data set is described as follows: Cytotoxicity against human THP1 cells assessed as induction of TNF-alpha release. The class given is cell-based.
Data set [10] in a line: Antitumor activity against mouse B16F0 cells allografted in C57BL/6 mouse assessed as inhibition of lung metastasis at 100 ug, iv administered at 7-day interval over 14 days prior to tumor implantation measured on day 21 relative to control. The class given is functional.
Another data set relates to A549. The data set is described as follows: Immunostimulatory activity in human A549 cells assessed as induction of MIP-1beta release at 100 uM after 3 hrs by ELISA. Format: functional, cell-based.
Another data set has as its system DLD-1. The data set is described as follows: Immunostimulatory activity in human DLD1 cells assessed as induction of MIP-1beta release at 100 uM after 3 hrs by ELISA. The class given is functional, cell-based.
In data set [11] the test system is Macrophage. The data set is described as follows: Immunostimulatory activity in ICR mouse macrophage assessed as induction of phagocytic activity measuring IL-6 secretion at 50 uM after 2 hrs by ELISA. The class given is functional, cell-based.
Data set [12] deals with Macrophage. The data set is described as follows: Immunostimulatory activity in ICR mouse macrophage assessed as induction of phagocytic activity measuring MIP-1beta secretion at 50 uM after 2 hrs by ELISA. The class given is functional, cell-based.

Molecules are shown by their SMILES. Calls of active or inactive are those of the source. The rule behind the calls is not given here.

For the compound `CCCCCCCCC(CCCCCCCC)C(=O)OC[C@H]1O[C@H](O[C@H]2O[C@H](COC(=O)C(CCCCCCCC)CCCCCCCC)[C@@H](O)[C@H](O)[C@H]2O)[C@H](O)[C@@H](O)[C@@H]1O`, the result in the data set on Mus musculus [1] and with Mus musculus [2] was Active.

`CCCCCCCCCCCC(CCCCCCCCCCC)CC(=O)OC[C@H]1O[C@H](O[C@H]2O[C@H](COC(=O)CC(CCCCCCCCCCC)CCCCCCCCCCC)[C@@H](O)[C@H](O)[C@H]2O)[C@H](O)[C@@H](O)[C@@H]1O`: the outcome in the data set on Mus musculus [1] and in the data set on Mus musculus [2] was Active.

Turning to `CCCCCCCCCC(CCCCCCCCC)CCC(=O)OC[C@H]1O[C@H](O[C@H]2O[C@H](COC(=O)CCC(CCCCCCCCC)CCCCCCCCC)[C@@H](O)[C@H](O)[C@H]2O)[C@H](O)[C@@H](O)[C@@H]1O`, the outcome with Macrophage [3] was inactive.

In the case of `CCCCCCCCCC(CCCCCCCCC)CC(=O)OC[C@H]1O[C@H](O[C@H]2O[C@H](COC(=O)CC(CCCCCCCCC)CCCCCCCCC)[C@@H](O)[C@H](O)[C@H]2O)[C@H](O)[C@@H](O)[C@@H]1O` [VIZANTIN], the “inhibition (INH)” value in the data set with Mus musculus [4] is recorded as 62%; in data set [6], 57%; in the data set on Mus musculus [8] it was 66%; in data set [10], over 98%. Besides, the result with THP-1 [5], in the data set on Mus musculus [1], in the data set with Macrophage [3] and in the data set on Mus musculus [2] was Active. The Activity result in the data set with Salmonella typhimurium, in the data set with Mus musculus [7] and with THP-1 [9] was “Non-toxic” each time. In addition, the result in the data set with A549 and in the data set on DLD-1 was inactive.

As to `CCCCCCCCCCCCCCC(CCCCCCCCCCCCCC)CC(=O)OC[C@H]1O[C@H](O[C@H]2O[C@H](COC(=O)CC(CCCCCCCCCCCCCC)CCCCCCCCCCCCCC)[C@@H](O)[C@H](O)[C@H]2O)[C@H](O)[C@@H](O)[C@@H]1O`, the result in the data set with Mus musculus [1] and in the data set with Mus musculus [2] was Active.

For the compound `CCCCCCCCCCCCC(CCCCCCCCCCCC)C(=O)OC[C@H]1O[C@H](O[C@H]2O[C@H](COC(=O)C(CCCCCCCCCCCC)CCCCCCCCCCCC)[C@@H](O)[C@H](O)[C@H]2O)[C@H](O)[C@@H](O)[C@@H]1O`, the result in the data set on Mus musculus [1] and with Mus musculus [2] was Active.

As to `CCCCCCCCCCCCCCC[C@@H](O)[C@@H](CCCCCCCCCCCCCC)C(=O)OC[C@H]1O[C@H](O[C@H]2O[C@H](COC(=O)[C@H](CCCCCCCCCCCCCC)[C@H](O)CCCCCCCCCCCCCCC)[C@@H](O)[C@H](O)[C@H]2O)[C@H](O)[C@@H](O)[C@@H]1O`, the outcome in the data set on THP-1 [5], in the data set on A549 and in the data set with DLD-1 was inactive. In addition, the outcome in the data set on Mus musculus [1], in the data set with Macrophage [11], in the data set on Macrophage [12], in the data set with Macrophage [3] and in the data set with Mus musculus [2] was Active. Further, in the data set on Mus musculus [8], the “inhibition (INH)” value is reported as 41%.

Consider `CCCCCCCCCCC(CCCCCCCCCC)CC(=O)OC[C@H]1O[C@H](O[C@H]2O[C@H](COC(=O)CC(CCCCCCCCCC)CCCCCCCCCC)[C@@H](O)[C@H](O)[C@H]2O)[C@H](O)[C@@H](O)[C@@H]1O`, for which the outcome in the data set with Mus musculus [1] and with Mus musculus [2] was Active.

For `CCCCCCCCCCCCCCC(CCCCCCCCCCCCCC)C(=O)OC[C@H]1O[C@H](O[C@H]2O[C@H](COC(=O)C(CCCCCCCCCCCCCC)CCCCCCCCCCCCCC)[C@@H](O)[C@H](O)[C@H]2O)[C@H](O)[C@@H](O)[C@@H]1O`, the result with Mus musculus [1] and with Mus musculus [2] was Active.

Turning to `CCCCCCCCCCCC(=O)O`, the result in the data set on Macrophage [3] was inactive.

As to `CCCCCCCCCCCCCC(CCCCCCCCCCCCC)C(=O)OC[C@H]1O[C@H](O[C@H]2O[C@H](COC(=O)C(CCCCCCCCCCCCC)CCCCCCCCCCCCC)[C@@H](O)[C@H](O)[C@H]2O)[C@H](O)[C@@H](O)[C@@H]1O`, the result in the data set with Mus musculus [1] and in the data set with Mus musculus [2] was Active.

`CCCCCCCCC(CCCCCCCC)CC(=O)OC[C@H]1O[C@H](O[C@H]2O[C@H](COC(=O)CC(CCCCCCCC)CCCCCCCC)[C@@H](O)[C@H](O)[C@H]2O)[C@H](O)[C@@H](O)[C@@H]1O`: the result in the data set with Mus musculus [1] and in the data set with Mus musculus [2] was Active.

Take `CCCCCCCCC(CCCCCCCC)CCC(=O)OC[C@H]1O[C@H](O[C@H]2O[C@H](COC(=O)CCC(CCCCCCCC)CCCCCCCC)[C@@H](O)[C@H](O)[C@H]2O)[C@H](O)[C@@H](O)[C@@H]1O`: the result with Macrophage [3] was inactive.

On to `CCCCCCCCCCCCCCCCC(CCCCCCCCCCCCCCCC)C(=O)OC[C@H]1O[C@H](O[C@H]2O[C@H](COC(=O)C(CCCCCCCCCCCCCCCC)CCCCCCCCCCCCCCCC)[C@@H](O)[C@H](O)[C@H]2O)[C@H](O)[C@@H](O)[C@@H]1O`, for which the outcome with Mus musculus [1] and in the data set with Mus musculus [2] was Active.

As for `CCCCCCCCCCC(CCCCCCCCCC)C(=O)OC[C@H]1O[C@H](O[C@H]2O[C@H](COC(=O)C(CCCCCCCCCC)CCCCCCCCCC)[C@@H](O)[C@H](O)[C@H]2O)[C@H](O)[C@@H](O)[C@@H]1O`, the outcome in the data set on THP-1 [5], with A549 and with DLD-1 was inactive. In addition, the result in the data set with Mus musculus [1], in the data set on Macrophage [3] and in the data set on Mus musculus [2] was Active.

In the case of `CCCCCCCCCCCCC(CCCCCCCCCCCC)CC(=O)OC[C@H]1O[C@H](O[C@H]2O[C@H](COC(=O)CC(CCCCCCCCCCCC)CCCCCCCCCCCC)[C@@H](O)[C@H](O)[C@H]2O)[C@H](O)[C@@H](O)[C@@H]1O`, the outcome in the data set with Mus musculus [1] and in the data set on Mus musculus [2] was Active.

Turning to `CCCCCCCCCCCCCCCC(CCCCCCCCCCCCCCC)C(=O)OC[C@H]1O[C@H](O[C@H]2O[C@H](COC(=O)C(CCCCCCCCCCCCCCC)CCCCCCCCCCCCCCC)[C@@H](O)[C@H](O)[C@H]2O)[C@H](O)[C@@H](O)[C@@H]1O`, the outcome in the data set on Mus musculus [1] and with Mus musculus [2] was Active.

As to `CCCCCCCCCCCCCC(CCCCCCCCCCCCC)CC(=O)OC[C@H]1O[C@H](O[C@H]2O[C@H](COC(=O)CC(CCCCCCCCCCCCC)CCCCCCCCCCCCC)[C@@H](O)[C@H](O)[C@H]2O)[C@H](O)[C@@H](O)[C@@H]1O`, the outcome with Mus musculus [1] and with Mus musculus [2] was Active.

In the case of `CCCCCCCCCCCCCCCCC(CCCCCCCCCCCCCC)C(=O)OC[C@H]1O[C@H](O[C@H]2O[C@H](COC(=O)C(CCCCCCCCCCCCCC)CCCCCCCCCCCCCCCC)[C@@H](O)[C@H](O)[C@H]2O)[C@H](O)[C@@H](O)[C@@H]1O` (stereo not given in full), the outcome in the data set with Mus musculus [1], in the data set with Macrophage [3] and in the data set on Mus musculus [2] was Active.

For the compound `CCCCCCCCCC(CCCCCCCCC)C(=O)OC[C@H]1O[C@H](O[C@H]2O[C@H](COC(=O)C(CCCCCCCCC)CCCCCCCCC)[C@@H](O)[C@H](O)[C@H]2O)[C@H](O)[C@@H](O)[C@@H]1O`, the result with Mus musculus [1] and in the data set on Mus musculus [2] was Active.

In the case of `CCCCCCCCCCCCCCC[C@@H](OC)[C@@H](CCCCCCCCCCCCCC)C(=O)OC[C@H]1O[C@H](O[C@H]2O[C@H](COC(=O)[C@H](CCCCCCCCCCCCCC)[C@@H](CCCCCCCCCCCCCCC)OC)[C@@H](O)[C@H](O)[C@H]2O)[C@H](O)[C@@H](O)[C@@H]1O`, the outcome in the data set on Macrophage [11], in the data set with Macrophage [12] and with Macrophage [3] was Active.

Regarding `CCCCCCCCCCCC(CCCCCCCCCCC)C(=O)OC[C@H]1O[C@H](O[C@H]2O[C@H](COC(=O)C(CCCCCCCCCCC)CCCCCCCCCCC)[C@@H](O)[C@H](O)[C@H]2O)[C@H](O)[C@@H](O)[C@@H]1O`, the outcome with Mus musculus [1] and in the data set on Mus musculus [2] was Active.
